According to PubChem BioAssay AID743115 (Vanderbilt Specialized Chemistry Center, 2013):
The source made the active and inactive calls.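 Rule for the calls: active = response above 60% of the acetylcholine maximum at the M5 muscarinic receptor, read as positive allosteric modulation; inactive = the rest.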

Target: Muscarinic acetylcholine receptor M3 (Homo sapiens) (UniProt P20309)
Experiment: human M3 receptor positive allosteric modulators, dose response, selectivity assay for M5 PAM project, cell-based, CHO-K1 hM3, calcium flux, ACh EC20 (AID 743115)
Conditions: CHO-K1 hM3, calcium flux Fluo-4, ACh EC20 potentiation

Chain of Muscarinic acetylcholine receptor M3 (Homo sapiens) (P20309 whole entry, looked up): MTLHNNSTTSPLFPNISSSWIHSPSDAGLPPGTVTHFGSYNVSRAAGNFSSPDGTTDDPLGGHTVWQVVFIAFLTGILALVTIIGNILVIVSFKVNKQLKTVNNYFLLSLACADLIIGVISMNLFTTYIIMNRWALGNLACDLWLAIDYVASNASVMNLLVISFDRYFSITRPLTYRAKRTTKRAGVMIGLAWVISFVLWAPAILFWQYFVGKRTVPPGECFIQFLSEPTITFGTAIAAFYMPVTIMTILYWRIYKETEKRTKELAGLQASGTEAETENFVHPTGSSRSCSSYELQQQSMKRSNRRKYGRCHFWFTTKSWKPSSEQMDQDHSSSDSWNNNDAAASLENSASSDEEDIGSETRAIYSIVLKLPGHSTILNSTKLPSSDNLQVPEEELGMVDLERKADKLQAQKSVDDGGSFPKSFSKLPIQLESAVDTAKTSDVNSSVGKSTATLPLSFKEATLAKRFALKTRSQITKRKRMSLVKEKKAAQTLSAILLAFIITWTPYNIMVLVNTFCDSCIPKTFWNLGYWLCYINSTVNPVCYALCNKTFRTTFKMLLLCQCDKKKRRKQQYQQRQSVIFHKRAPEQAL

| SMILES | EC50 |
| --- | --- |
| CCN(Cc1ccccc1C(F)(F)F)C(=O)C1CCN(S(=O)(=O)c2ccc3[nH]ncc3c2)CC1 | 2080 nM |
| CCN(Cc1ccccc1C(F)(F)F)C(=O)C1(F)CCN(S(=O)(=O)c2ccc3[nH]ncc3c2)CC1 | 1770 nM |
| CCN(Cc1ccccc1C(F)(F)F)C(=O)C1CCN(S(=O)(=O)c2ccc3cn[nH]c3c2)CC1 | 4670 nM |
| CCN(Cc1ccccc1Cl)C(=O)C1CCN(S(=O)(=O)c2ccc3[nH]ncc3c2)CC1 | 520 nM |

Now from value to compound:

| EC50 | SMILES |
| --- | --- |
| 2890 nM | CCN(Cc1ccccc1Cl)C(=O)C1CCN(S(=O)(=O)c2ccc3cn[nH]c3c2)CC1 |
| 2170 nM | CCN(C(=O)C1CCN(S(=O)(=O)c2ccc3[nH]ncc3c2)CC1)[C@H](C)c1ccccc1 |

Same assay, conditions: CHO-K1 hM3, calcium flux Fluo-4, ACh EC20 potentiation; at 30 µM (top of the series)

| % ACh max response | SMILES |
| --- | --- |
| inactive | CCN(Cc1ccccc1)C(=O)C1CCN(S(=O)(=O)c2ccc(OC)cc2)CC1 |
| inactive | CCN(C(=O)C1CCN(S(=O)(=O)c2ccc(OC)cc2)CC1)[C@H](C)c1ccccc1 |
| inactive | CCN(Cc1ccccc1)C(=O)C1CCN(S(=O)(=O)c2ccc3c(c2)OCCO3)CC1 |
